# Experimental data reported in patent publication US20250195511A1, “INDAZOLE DERIVATIVES USEFUL AS INHIBITORS OF NOD-LIKE RECEPTOR PROTEIN 3” (Merck Sharp & Dohme LLC, priority 2023, published 2025).
# Test system: NLRP3 inflammasome
# Assay: NLRP3 inflammasome activation: ASC-SPECK formation in gramicidin-stimulated THP-1 cells
# Type: cell-based
# Conditions: Homo sapiens, THP-1, inhibition of ASC SPECK formation; PMA-treated human monocytic THP-1 cells, compound 1 h before 12.5 μg/ml gramicidin, 3-hour treatment
# From the text: Activation of the canonical NLRP3 inflammasome requires two steps, priming and activation. A priming signal such as a pathogen activated molecular patterns (PAMPs) or danger-activated molecular patterns (DAMPs) are recognized by Toll-like receptors leads to nuclear factor kappa B (NF-KB)-mediated signaling. […] The second step is activation which induces oligomerization of NLRP3 and subsequent assembly of NLRP3, apoptosis-associated speck-like protein containing a CARD (ASC), and procaspase-1 into an inflammasome complex. This triggers the transformation of procaspase-1 to caspase-1, and the production and secretion of mature IL-1β and IL-18 (Kim et al., J. Inflamm. 2015, 12, 41; Ozaki et al., J. Inflamm. Res. 2015, 8, 15-27; Rabeony et al., Eur. J. Immunol. 2015, 45, 2847). During inflammasome complex assembly, the oligomerization of NLRP3 triggers the nucleation of ASC and an event commonly referred to as “ASC SPECK” formation, as it is identified in the cell as a discrete puncta within the cell after staining and visualization of ASC using common immunocytochemical methods.
# The ability of compounds to inhibit NLRP3 inflammasome activation was determined in vitro by monitoring formation of the ASC-SPECK in human monocytic THP-1 cells after stimulation. THP-1 cells (ATCC catalog #TIB-202) were maintained in complete growth media containing Roswell Park Memorial Institute RPMI (ATCC catalog #30-2001), 10% heat inactivated fetal bovine serum, 1× penicillin/streptomycin and 0.05 mM 2-mercaptoethanol. At the start of the assay, undifferentiated THP-1 cells were plated at a density of 20,000 cells per well in a 384-well plate (Poly-D-lysine coated Cell Carrier Ultra microplate, Perkin Elmer catalog #6057500) in complete growth media supplemented with 10 ng/ml phorbol 12-myristate 13-acetate (PMA; Sigma catalog #P8139), and then incubated overnight. The next day, media was replaced with assay media (RPMI (Gibco catalog #11875-093), 0.01% bovine serum albumin (BSA)). Compounds were serially diluted in DMSO and then added to wells one hour prior to the addition of 12.5 μg/ml Gramicidin (Enzo Lifescience, catalog #ALX-350-233-M005). All incubations were carried out at 37° C. (5% CO2/95% air). Following a 3-hour treatment with gramicidin, cells are fixed with 4% paraformaldehyde and stored at 4° C. until immunofluorescence staining.
# Immunofluorescence staining: Anti-ASC antibody (MBL catalog #D086-3) was desalted and labeled with Alexa 488 antibody labeling kit (Thermo catalog #A20181) prior to use as described below. After fixation, the following steps were carried out at rt. Cells were first permeabilized with 0.3% polyethylene glycol tert-octylphenyl ether (Triton X-100) in phosphate-buffered saline (PBS) for 15 minutes and then incubated in blocking buffer containing 5% goat serum, 0.3% polyethylene glycol sorbitan monolaurate (Tween-20) and 0.03% sodium azide in PBS for 1 hour. Cells were stained with a mixture of ASC-Alexa 488 antibody (diluted 1:200 in blocking buffer) and nuclear stain DRAQ5 (1:5000 in blocking buffer, Thermo catalog #62251) in blocking buffer for 1 hour. Following a wash with 0.3% polyethylene glycol sorbitan monolaurate (Tween-20) in PBS, plates were imaged with an Opera Phenix High Content Screening System. The number of DRAQ5 positive cells containing ASC SPECKS were quantified in each well.
# Data analysis: EC50 values were calculated by standard curve-fitting analysis using an internally developed program in TIBCO Spotfire software.
row,EC50 [nM],SMILES
1,876,"Cc1cc(C(F)(F)F)cc(O)c1-c1cnc2cn(C3COC4(C)CC3C4)nc2n1 (racemic) [Example 19, (R and S)-3-methyl-2-(2-(1-methyl-2-oxabicyclo[3.1.1]heptan-4-yl)-2H-pyrazolo[3,4-b]pyrazin-6-yl)-5-(trifluoromethyl)phenol]"
2,186,"Cc1cc(C(F)(F)F)cc(O)c1-c1cnc2cn([C@@H]3CC[C@H](C#N)C3)nc2n1 (racemic) [Example 20, (1S,3R and 1R,3S)-3-(6-(2-hydroxy-6-methyl-4-(trifluoromethyl)phenyl)-2H-pyrazolo[3,4-b]pyrazin-2-yl)cyclopentane-1-carbonitrile]"

# Further lines, the molecule ahead of its results:
row,SMILES,EC50 [nM]
1,"Cc1cc(C(F)(F)F)cc(O)c1-c1cnc2cn([C@]34CCC[C@H]3OCC4)nc2n1 (mixture of isomers) [Example 21, 2-(2-((3aS,6aR and 3aR,6aS)-hexahydro-3aH-cyclopenta[b]furan-3a-yl)-2H-pyrazolo[3,4-b]pyrazin-6-yl)-3-methyl-5-(trifluoromethyl)phenol]",814
2,"Cc1cc(C(F)(F)F)cc(O)c1-c1cnc2cn(C3CCCOC34CCC4)nc2n1 (racemic) [Example 22, (S and R)-2-(2-(5-oxaspiro[3.5]nonan-9-yl)-2H-pyrazolo[3,4-b]pyrazin-6-yl)-3-methyl-5-(trifluoromethyl)phenol]",202
3,"Cc1cc(C(F)(F)F)cc(O)c1-c1cnc2cn(C3CC34CCOCC4)nc2n1 (racemic) [Example 23, (S and R)-2-(2-(6-oxaspiro[2.5]octan-1-yl)-2H-pyrazolo[3,4-b]pyrazin-6-yl)-3-methyl-5-(trifluoromethyl)phenol]",461
4,"Cc1cc(C(F)(F)F)cc(O)c1-c1cnc2cn(C34CC(C)(C3)OC4C)nc2n1 (racemic) [Example 24, (S and R)-2-(2-(1,3-dimethyl-2-oxabicyclo[2.1.1]hexan-4-yl)-2H-pyrazolo[3,4-b]pyrazin-6-yl)-3-methyl-5-(trifluoromethyl)phenol]",427
5,"Cc1cc(C(F)(F)F)cc(O)c1-c1cnc2cn(C3COC4CC3C4)nc2n1 (racemic) [Example 25, (S and R)-2-(2-(2-oxabicyclo[3.1.1]heptan-4-yl)-2H-pyrazolo[3,4-b]pyrazin-6-yl)-3-methyl-5-(trifluoromethyl)phenol]",261
6,"COc1ccc(CN2CC(n3nc4nc(-c5c(C)cc(C(F)(F)F)cc5O)cnc4c3C)CCC2=O)cc1 (racemic) [Example 107, (R and S)-5-(6-(2-hydroxy-6-methyl-4-(trifluoromethyl)phenyl)-3-methyl-2H-pyrazolo[3,4-b]pyrazin-2-yl)-1-(4-methoxybenzyl)piperidin-2-one]",279

# Same assay, conditions: inhibition of ASC SPECK formation; PMA-treated human monocytic THP-1 cells, compound 1 h before 12.5 μg/ml gramicidin, 3-hour treatment
row,EC50 [nM],SMILES
1,298,"Cc1cc(C(F)(F)F)cc(O)c1-c1cnc2cn(CC3CC(=O)N(C)C3)nc2n1 (single isomer, unassigned) [Example 58, (R or S)-4-((6-(2-hydroxy-6-methyl-4-(trifluoromethyl)phenyl)-2H-pyrazolo[3,4-b]pyrazin-2-yl)methyl)-1-methylpyrrolidin-2-one]"
2,20,"Cc1cc(C(F)(F)F)cc(O)c1-c1cnc2cn(CC3CC(=O)N(C)C3)nc2n1 (single isomer, unassigned) [Example 59, (S or R)-4-((6-(2-hydroxy-6-methyl-4-(trifluoromethyl)phenyl)-2H-pyrazolo[3,4-b]pyrazin-2-yl)methyl)-1-methylpyrrolidin-2-one]"
3,7,"Cc1cc(C(F)(F)F)cc(O)c1-c1cnc2cn(C3CCC(=O)N(C(C)C)C3)nc2n1 (single isomer, unassigned) [Example 60, (R or S)-5-(6-(2-hydroxy-6-methyl-4-(trifluoromethyl)phenyl)-2H-pyrazolo[3,4-b]pyrazin-2-yl)-1-isopropylpiperidin-2-one]"
4,101,"Cc1cc(C(F)(F)F)cc(O)c1-c1cnc2cn(C3CCC(=O)N(C(C)C)C3)nc2n1 (single isomer, unassigned) [Example 61, (S or R)-5-(6-(2-hydroxy-6-methyl-4-(trifluoromethyl)phenyl)-2H-pyrazolo[3,4-b]pyrazin-2-yl)-1-isopropylpiperidin-2-one]"
5,291,"Cc1cc(C(F)(F)F)cc(O)c1-c1cnc2cn(CC3CC(=O)N(C4CC4)C3)nc2n1 (single isomer, unassigned) [Example 62, (R or S)-1-cyclopropyl-4-((6-(2-hydroxy-6-methyl-4-(trifluoromethyl)phenyl)-2H-pyrazolo[3,4-b]pyrazin-2-yl)methyl)pyrrolidin-2-one]"
6,12,"Cc1cc(C(F)(F)F)cc(O)c1-c1cnc2cn(CC3CC(=O)N(C4CC4)C3)nc2n1 (single isomer, unassigned) [Example 63, (S or R)-1-cyclopropyl-4-((6-(2-hydroxy-6-methyl-4-(trifluoromethyl)phenyl)-2H-pyrazolo[3,4-b]pyrazin-2-yl)methyl)pyrrolidin-2-one]"
7,10,"CCN1CC(n2cc3ncc(-c4c(C)cc(C(F)(F)F)cc4O)nc3n2)CCC1=O (single isomer, unassigned) [Example 64, (R or S)-1-ethyl-5-(6-(2-hydroxy-6-methyl-4-(trifluoromethyl)phenyl)-2H-pyrazolo[3,4-b]pyrazin-2-yl)piperidin-2-one]"
8,79,"CCN1CC(n2cc3ncc(-c4c(C)cc(C(F)(F)F)cc4O)nc3n2)CCC1=O (single isomer, unassigned) [Example 65, (S or R)-1-ethyl-5-(6-(2-hydroxy-6-methyl-4-(trifluoromethyl)phenyl)-2H-pyrazolo[3,4-b]pyrazin-2-yl)piperidin-2-one]"
9,359,"CCN1CC(Cn2cc3ncc(-c4c(C)cc(C(F)(F)F)cc4O)nc3n2)CC1=O (single isomer, unassigned) [Example 66, (R or S)-1-ethyl-4-((6-(2-hydroxy-6-methyl-4-(trifluoromethyl)phenyl)-2H-pyrazolo[3,4-b]pyrazin-2-yl)methyl)pyrrolidin-2-one]"
10,7,"CCN1CC(Cn2cc3ncc(-c4c(C)cc(C(F)(F)F)cc4O)nc3n2)CC1=O (single isomer, unassigned) [Example 67, (S or R)-1-ethyl-4-((6-(2-hydroxy-6-methyl-4-(trifluoromethyl)phenyl)-2H-pyrazolo[3,4-b]pyrazin-2-yl)methyl)pyrrolidin-2-one]"

# Continued, molecule first:
row,SMILES,EC50 [nM]
1,"Cc1cc(C(F)(F)F)cc(O)c1-c1cnc2cn([C@@H]3C[C@@H]4C[C@H]3CO4)nc2n1 (single isomer, unassigned) [Example 3, 2-(2-((1S,4R,5R or 1R,4S,5S)-2-oxabicyclo[2.2.1]heptan-5-yl)-2H-pyrazolo[3,4-b]pyrazin-6-yl)-3-methyl-5-(trifluoromethyl)phenol]",35
2,"Cc1cc(C(F)(F)F)cc(O)c1-c1cnc2cn([C@H]3C[C@H]4C[C@@H]3CO4)nc2n1 (single isomer, unassigned) [Example 4, 2-(2-((1R,4S,5S or 1S,4R,5R)-2-oxabicyclo[2.2.1]heptan-5-yl)-2H-pyrazolo[3,4-b]pyrazin-6-yl)-3-methyl-5-(trifluoromethyl)phenol]",34
3,"Cc1cc(C(F)(F)F)cc(O)c1-c1cnc2cn(C3C4CS(=O)(=O)CC43)nc2n1 (single isomer, unassigned) [Example 53, (1R,5S,6S or 1R,5S,6R)-6-(6-(2-hydroxy-6-methyl-4-(trifluoromethyl)phenyl)-2H-pyrazolo[3,4-b]pyrazin-2-yl)-3-thiabicyclo[3.1.0]hexane 3,3-dioxide]",981
4,"Cc1cc(C(F)(F)F)cc(O)c1-c1cnc2cn(C3C4CS(=O)(=O)CC43)nc2n1 (single isomer, unassigned) [Example 54, (1R,5S,6R or 1R,5S,6S)-6-(6-(2-hydroxy-6-methyl-4-(trifluoromethyl)phenyl)-2H-pyrazolo[3,4-b]pyrazin-2-yl)-3-thiabicyclo[3.1.0]hexane 3,3-dioxide]",98
